Columns and labels:
JMJD2A (KDM4A) = target: T1, JMJD2A (KDM4A) (Homo sapiens, UniProt O75164); experiment: biochemical; design: AlphaScreen histone demethylase activity assay; details: read-out: KDM4A % Inhib. (18.75 uM)
T1 sequence (O75164 1-1064): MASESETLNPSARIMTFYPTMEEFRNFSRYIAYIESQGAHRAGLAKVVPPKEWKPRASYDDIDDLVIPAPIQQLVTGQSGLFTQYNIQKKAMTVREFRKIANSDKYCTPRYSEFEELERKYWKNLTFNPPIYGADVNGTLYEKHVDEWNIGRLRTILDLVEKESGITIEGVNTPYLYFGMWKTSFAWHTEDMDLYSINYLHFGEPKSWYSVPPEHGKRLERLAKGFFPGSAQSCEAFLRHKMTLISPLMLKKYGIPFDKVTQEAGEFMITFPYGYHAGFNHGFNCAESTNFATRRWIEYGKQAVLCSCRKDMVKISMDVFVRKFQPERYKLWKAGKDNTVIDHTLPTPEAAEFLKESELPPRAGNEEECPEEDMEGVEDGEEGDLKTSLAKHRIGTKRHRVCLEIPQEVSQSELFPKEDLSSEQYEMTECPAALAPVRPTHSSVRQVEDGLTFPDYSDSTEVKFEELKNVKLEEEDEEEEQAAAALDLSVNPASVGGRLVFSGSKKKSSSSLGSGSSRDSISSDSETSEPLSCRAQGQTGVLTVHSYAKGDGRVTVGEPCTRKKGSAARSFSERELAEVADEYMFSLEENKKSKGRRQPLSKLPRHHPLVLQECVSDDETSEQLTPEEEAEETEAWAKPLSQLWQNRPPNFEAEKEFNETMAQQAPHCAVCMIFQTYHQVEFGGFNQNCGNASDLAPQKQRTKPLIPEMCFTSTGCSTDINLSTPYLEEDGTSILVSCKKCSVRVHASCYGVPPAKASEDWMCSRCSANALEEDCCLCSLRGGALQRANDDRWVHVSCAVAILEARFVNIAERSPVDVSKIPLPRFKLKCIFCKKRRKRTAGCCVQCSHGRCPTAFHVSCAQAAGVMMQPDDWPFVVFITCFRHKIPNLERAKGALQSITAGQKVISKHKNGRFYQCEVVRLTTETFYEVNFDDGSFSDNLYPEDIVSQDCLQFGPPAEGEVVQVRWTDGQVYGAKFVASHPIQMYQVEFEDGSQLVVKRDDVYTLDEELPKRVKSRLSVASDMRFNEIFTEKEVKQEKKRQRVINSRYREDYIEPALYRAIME

KDM2A = target: T2, KDM2A (Homo sapiens, UniProt Q9Y2K7); experiment: biochemical; design: RapidFire MS histone peptide demethylation assay; details: for IC50: read-out: KDM2A RapidFire pIC50 (converted); for KDM2A RapidFire pIC50: inhibitor
T2 construct: isolated enzyme
T2 sequence (Q9Y2K7 1-517 limits assumed): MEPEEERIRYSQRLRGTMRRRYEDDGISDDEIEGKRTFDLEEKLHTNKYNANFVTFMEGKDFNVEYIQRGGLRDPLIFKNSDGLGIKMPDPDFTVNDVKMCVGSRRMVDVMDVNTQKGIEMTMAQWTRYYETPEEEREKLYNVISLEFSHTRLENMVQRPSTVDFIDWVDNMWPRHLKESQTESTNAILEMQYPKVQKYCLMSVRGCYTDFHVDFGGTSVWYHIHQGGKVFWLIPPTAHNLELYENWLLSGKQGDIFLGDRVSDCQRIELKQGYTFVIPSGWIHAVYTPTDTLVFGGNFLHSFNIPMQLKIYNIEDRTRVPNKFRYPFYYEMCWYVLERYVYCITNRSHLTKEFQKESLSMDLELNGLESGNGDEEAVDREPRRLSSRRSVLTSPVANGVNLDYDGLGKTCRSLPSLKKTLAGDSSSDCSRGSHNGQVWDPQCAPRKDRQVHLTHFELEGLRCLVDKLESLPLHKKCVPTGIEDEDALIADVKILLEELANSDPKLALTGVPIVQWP
Procedure: [formula] Scheme 1 A) General synthetic strategy for racemic synthesis of KDM2A inhibitors. Reagents and conditions: i) Zn powder (10 equiv), NH4Cl (15 equiv), 5:1 acetone/H2O or H2, Pd/C (10 % w/w), EtOAc; ii) ArCHO (1.3 equiv), MgSO4 (5 equiv), PhMe or ArCHO (1.3 equiv), pyrrolidine (0.1 equiv), 3 Å sieves, CH2Cl2; iii) KO^tBu (1.1 equiv), PhMe, 0 °C; iv) R^3COCl (2–5 equiv), pyridine (2–5 equiv), CH2Cl2; v) metal‐catalysed cross‐coupling. B) Key structure–activity relationships. IC50 values were determined by RapidFire MS and confirmed by AlphaScreen. All compounds are racemic. C) Catalytic enantioselective synthesis. Reagents and conditions: i) CsOH⋅H2O (2.0 equiv), catalyst 14/16 (10 mol %), PhMe, −30 °C. Catalyst 14: 89 %, d.r. 10:1, e.r. 88:12; catalyst 16: 84 %, d.r. 7:1, e.r. 17:83; ii) CH3COCl (2.0 equiv), pyridine (2.0 equiv), CH2Cl2; iii) H2, Pd/C (10 % w/w), 88 % (2 steps); iv) K2CO3 (5 equiv), Br(CH2)7Br (4 equiv), acetone, reflux, 38 %; v) K2CO3 (5 equiv) pyrrolidine (4 equiv), CH3CN, 65 %; vi) PhN(SO2CF3)2 (1.1 equiv), DIPEA (2.0 equiv), CH2Cl2, 0 °C, 85 %; vii) 7‐pyrrolidine‐hept‐1‐yne (1.5 equiv), PdCl2(PPh3)2 (5 mol %), CuI (5 mol %), HN(^iPr)2, 75 °C, 79 %; viii) H2, Pd/C (10 % w/w), MeOH, 74 %. DIPEA=(^iPr)2NEt. A base‐mediated 5‐endo‐trig cyclization of a C‐2‐substituted aromatic imine afforded the racemic indoline core with two adjacent stereocenters. Subsequent acylation of the indoline ring system conferred stability towards oxidation and provided a handle for modulating polarity. Finally, metal‐catalysed cross‐coupling of the aryl bromide provided access to a variety of linkers between the indoline core and pyrrolidine capping group. In total, 45 racemic compounds were synthesized, and IC50 values for inhibition of KDM2A were determined using two orthogonal enzyme activity assays: AlphaScreen25 and RapidFire MS26 (see Section S3.1 in the Supporting Information for complete inhibition data). Key structure–activity relationships are summarized below (Scheme 1 B, compounds 2–12).

Row | IC50 (KDM2A) [µM] | Compound | also measured
1 | – | CC(=O)N1c2ccccc2C(C#N)(c2ccccc2)C1c1ccc(C#CCCCCCN2CCCC2)o1 (centres unmarked) [compound 133, 133] | inhibition at 18.75 µM (JMJD2A (KDM4A)): 19.8%
2 | 3.26 | CC(=O)N1c2ccccc2[C@](C#N)(c2ccccc2)[C@H]1c1cccc(OCCCCCCCN2CCOCC2)c1 (racemic) [compound 70, (2RS,3RS)-1-Acetyl-2-(3-((7-morpholinoheptyl)oxy)phenyl)-3-phenylindoline-3-carbonitrile] | –
3 | – | N#C[C@]1(c2ccccc2)c2ccccc2N[C@@H]1c1cncc(CCCCCCCN2CCCC2)c1 (relative stereo) [compound 142, 142] | KDM2A RapidFire pIC50 (KDM2A): 6.708
4 | 1.38 | CC(=O)N1c2ccccc2[C@](C#N)(c2ccccc2)[C@H]1c1cccc(OCCCCCCCCN2CCCC2)c1 (racemic) [compound 60, (2RS,3RS)-1-Acetyl-3-phenyl-2-(3-((8-(pyrrolidin-1-yl)octyl)oxy)phenyl)indoline-3-carbonitrile] | –
5 | 1.32 | N#C[C@]1(c2ccccc2)c2ccccc2N(C(=O)c2ccc(C(F)(F)F)cc2)[C@@H]1c1cccc(OCCCCCCCN2CCCC2)c1 (racemic) [compound 66, (2RS,3RS)-3-Phenyl-2-(3-((7-(pyrrolidin-1-yl)heptyl)oxy)phenyl)-1-(4-(trifluoromethyl)benzoyl)indoline-3-carbonitrile] | –
6 | 2.02 | N#C[C@]1(c2ccccc2)c2ccccc2N(C(=O)c2ccccc2)[C@@H]1c1cccc(OCCCCCCCN2CCCC2)c1 (racemic) [compound 63, (2RS,3RS)-1-Benzoyl-3-phenyl-2-(3-((7-(pyrrolidin-1-yl)heptyl)oxy)phenyl)indoline-3-carbonitrile] | –
7 | – | CC(=O)N1c2ccccc2C(C#N)(c2ccccc2)C1c1cc(C#CCCCCCN2CCCC2)co1 (centres unmarked) [compound 134, 134] | inhibition at 18.75 µM (JMJD2A (KDM4A)): 19.4%
8 | 0.883 | N#C[C@]1(c2ccccc2)c2ccccc2N(C(=O)c2ccco2)[C@@H]1c1cccc(OCCCCCCCN2CCCC2)c1 (racemic) [compound 64, (2RS,3RS)-1-(Furan-2-carbonyl)-3-phenyl-2-(3-((7-(pyrrolidin-1-yl)heptyl)oxy)phenyl)indoline-3-carbonitrile] | –
9 | 1.25 | CC(=O)N1c2ccccc2[C@](C#N)(c2ccccc2)[C@H]1c1cccc(OCCCCCN2CCCC2)c1 (racemic) [compound 57, (2RS,3RS)-1-Acetyl-3-phenyl-2-(3-((5-(pyrrolidin-1-yl)pentyl)oxy)phenyl)indoline-3-carbonitrile] | –
10 | – | N#C[C@]1(c2ccccc2)c2ccccc2N[C@@H]1c1cncc(C#CCCCCCN2CCCC2)c1 (relative stereo) [compound 137, 137] | KDM2A RapidFire pIC50 (KDM2A): 5.884
11 | – | CC(=O)N1c2ccccc2[C@@](C#N)(c2ccccc2)[C@@H]1c1cncc(OCCCCCCCN2CCCC2)c1 [(S,S)-3] | KDM2A RapidFire pIC50 (KDM2A): 6.401
12 | 0.838 | CC(=O)N1c2ccccc2[C@](C#N)(c2ccccc2)[C@H]1c1cncc(/C=C\CCCCCN2CCCC2)c1 (racemic) [compound 152, (2RS,3RS)-1-Acetyl-3-phenyl-2-(5-((Z)-7-(pyrrolidin-1-yl)hept-1-en-1-yl)pyridin-3-yl)indoline-3-carbonitrile] | –
13 | 1.35 | CC(C)CC(=O)N1c2ccccc2[C@](C#N)(c2ccccc2)[C@H]1c1cccc(OCCCCCCCN2CCCC2)c1 (racemic) [compound 65, (2RS,3RS)-1-(3-Methylbutanoyl)-3-phenyl-2-(3-((7-(pyrrolidin-1-yl)heptyl)oxy)phenyl)indoline-3-carbonitrile] | –
14 | 1.51 | CC(=O)N1c2ccccc2[C@](C#N)(c2ccccc2)[C@H]1c1cccc(OCCCCCCCCCN2CCCC2)c1 (racemic) [compound 62, (2RS,3RS)-1-Acetyl-3-phenyl-2-(3-((9-(pyrrolidin-1-yl)nonyl)oxy)phenyl)indoline-3-carbonitrile] | –
15 | – | CC(=O)N1c2ccccc2[C@](C#N)(c2ccccc2)[C@H]1c1cccc(/C=C/CCCCCN2CCCC2)c1 (racemic) [compound 9, 9] | inhibition at 18.75 µM (JMJD2A (KDM4A)): 3.4%
16 | 1.07 | CC(=O)N1c2ccccc2[C@](C#N)(c2ccccc2)[C@H]1c1cccc(OCCCCCCCN2CCCCC2)c1 (racemic) [compound 69, (2RS,3RS)-1-Acetyl-3-phenyl-2-(3-((7-(piperidin-1-yl)heptyl)oxy)phenyl)indoline-3-carbonitrile] | –
17 | – | N#CCC(=O)N1c2ccccc2[C@](C#N)(c2ccccc2)[C@H]1c1cncc(CCCCCCCN2CCCC2)c1 (relative stereo) [compound 139, 139] | KDM2A RapidFire pIC50 (KDM2A): 6.368
18 | 1.03 | CC(=O)N1c2ccccc2[C@](C#N)(c2ccccc2)[C@H]1c1cccc(OCCCCCCN2CCCC2)c1 (racemic) [compound 58, (2RS,3RS)-1-Acetyl-3-phenyl-2-(3-((6-(pyrrolidin-1-yl)hexyl)oxy)phenyl)indoline-3-carbonitrile] | –
19 | 0.893 | CC(=O)N1c2ccccc2[C@](C#N)(c2ccccc2)[C@H]1c1cccc(OCCCCCCCN2CCCC2)c1 (racemic) [compound 59, (2RS,3RS)-1-Acetyl-3-phenyl-2-(3-((7-(pyrrolidin-1-yl)heptyl)oxy)phenyl)indoline-3-carbonitrile] | –

Row | Compound | IC50 (KDM2A) [µM] | also measured
20 | CC(=O)N1c2ccccc2[C@](C#N)(c2ccccc2)[C@H]1c1cccc(OCCCCN2CCCC2)c1 (racemic) [compound 56, (2RS,3RS)-1-Acetyl-3-phenyl-2-(3-(4-(pyrrolidin-1-yl)butoxy)phenyl)indoline-3-carbonitrile] | 2.02 | –
